From patent US7795278B2 (sanofi-aventis Deutschland GmbH, priority 2004, dated 2010)

Columns and labels:
[1] = target: purified human PARP-1 enzyme (Homo sapiens, UniProt P09874); assay: Enzyme inhibition assay with various substrate concentrations (apparent Ki); type: biochemical; settings: various concentrations of tritium-labeled NAD, room temperature, 10 min; Michaelis-Menten, purely competitive inhibition assumed; read-out: app. Ki
Procedure: Enzyme Inhibition Assay with Various Substrate Concentrations
Apparent Ki values of the test substances are determined in an enzymatic assay using the purified human PARP-1 enzyme. Specifically, various concentrations of the tritium-labeled substrate NAD are incubated with an identical concentration of the test substance in 50 μl of reaction solution, which contains 50 mM tris, 5 mM MgCl2, 1 mM DTT, 0.1 mg/ml DNA, 0.1 mg/ml histones, 2 μg/ml recombinantly expressed human PARP-1 enzyme, pH=8.0, at room temperature for 10 min. The reaction is stopped by adding 150 μl of 20% trichloroacetic acid, and the radiolabeled protein constituents are precipitated. After incubation on ice for 10 minutes, the labeled, insoluble constituents are separated off through a glass fiber filter and, after washing with 20% trichloroacetic acid three times, the radioactivity incorporated by the PARP-1 enzyme is measured by radioluminescence. Evaluation of the incorporation rates determined in this way as a function of the concentration of the substrate NAD affords the apparent Ki values according to Michaelis-Menten kinetics, assuming that the mechanism of inhibition is purely competitive.
(§1) EC-50 values and apparent Ki values are determined in this way for all the following selected compounds: […]

[2] = tested on: rat cardiomyocytes (H9c2 cell line); assay: ATP consumption assay in cardiomyoblasts; type: cell-based; settings: H9c2 cells, 15 min preincubation, 300 μM H2O2 for 1 hour, cellular ATP content by luciferase reaction
Procedure: ATP Consumption Assay in Cardiomyoblasts
The activity of the test substances in cells is ascertained by means of an ATP consumption assay. For this purpose, rat cardiomyocytes (H9c2 cell line) are seeded in a 96-well plate (40 000 cells per well, RPMI1640; 10% FCS) and kept at 37° C. and 5% CO2 for 16 hours. The cells are washed with PBS and incubated under identical conditions with various concentrations of the test substance in medium for 15 min. After addition of 300 μM H2O2, the cells are kept at 37° C., 5% CO2 for a further hour and lysed, and the cellular content of ATP is determined by means of luciferase reaction. The half-maximum effective concentration of the substances (EC50) is determined as the concentration at which the ATP content of the cells has reached half the value which can be measured with a maximally effective concentration of the same substance.
as §1

[3] = target: recombinantly expressed human PARP-1 enzyme (Homo sapiens, UniProt P09874); assay: PARP enzyme assay (half-maximum inhibitor concentration); type: biochemical; settings: DNA-activated PARP-1, 200 μM NAD, tritium-labeled NAD incorporation, room temperature, 1 hour, pH 8.0
Procedure: Pharmacological Investigations PARP Enzyme Assay
The half-maximum inhibitor concentration is determined by incubating the substances to be tested with the DNA-activated, recombinantly expressed and purified PARP-1 enzyme. Specifically, various concentrations of the test substance are incubated in 50 μl of reaction solution, which contains 50 mM Tris, 5 mM MgCl2, 1 mM DTT, 200 μM NAD, 0.1 mCi/ml tritium-labeled NAD, 0.1 mg/ml DNA, 0.1 mg/ml histones, 2 μg/ml recombinantly expressed human PARP-1 enzyme, pH=8.0, at room temperature for 1 hour. The reaction is stopped by adding 150 μl of 20% trichloroacetic acid, and the radiolabeled protein constituents are precipitated. After incubation on ice for 10 minutes, the labeled, insoluble constituents are separated off through a glass fiber filter and, after washing with 20% trichloroacetic acid three times, the radioactivity incorporated by the PARP-1 enzyme is measured by radioluminescence.
IC-50 values were determined in this way for the following compounds: […]

Chain of recombinantly expressed human PARP-1 enzyme (P09874 whole entry): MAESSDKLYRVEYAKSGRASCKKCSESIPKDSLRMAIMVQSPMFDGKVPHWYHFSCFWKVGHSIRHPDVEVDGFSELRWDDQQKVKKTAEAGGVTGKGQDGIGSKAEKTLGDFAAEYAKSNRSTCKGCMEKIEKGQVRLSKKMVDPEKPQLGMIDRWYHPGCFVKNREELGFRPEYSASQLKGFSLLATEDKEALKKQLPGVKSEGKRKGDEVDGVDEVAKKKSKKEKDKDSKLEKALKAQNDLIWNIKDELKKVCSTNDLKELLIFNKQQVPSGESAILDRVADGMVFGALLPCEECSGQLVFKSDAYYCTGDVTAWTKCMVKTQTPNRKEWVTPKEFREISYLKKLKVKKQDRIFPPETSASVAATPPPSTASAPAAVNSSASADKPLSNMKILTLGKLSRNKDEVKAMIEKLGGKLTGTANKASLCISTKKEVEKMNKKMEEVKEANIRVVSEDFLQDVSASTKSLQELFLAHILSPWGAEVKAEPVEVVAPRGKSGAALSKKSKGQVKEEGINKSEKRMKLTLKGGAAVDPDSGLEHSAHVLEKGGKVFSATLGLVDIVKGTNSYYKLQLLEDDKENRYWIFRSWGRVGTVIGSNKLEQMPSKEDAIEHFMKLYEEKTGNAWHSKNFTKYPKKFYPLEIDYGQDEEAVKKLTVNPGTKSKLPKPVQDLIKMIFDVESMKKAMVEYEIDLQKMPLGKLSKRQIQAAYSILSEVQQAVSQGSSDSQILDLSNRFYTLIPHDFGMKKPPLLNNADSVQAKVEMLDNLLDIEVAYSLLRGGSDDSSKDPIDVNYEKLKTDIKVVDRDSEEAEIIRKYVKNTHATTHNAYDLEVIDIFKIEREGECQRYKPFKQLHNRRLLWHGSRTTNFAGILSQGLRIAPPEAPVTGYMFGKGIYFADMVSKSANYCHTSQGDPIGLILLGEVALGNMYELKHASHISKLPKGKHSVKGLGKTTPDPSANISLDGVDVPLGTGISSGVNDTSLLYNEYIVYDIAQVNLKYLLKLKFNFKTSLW
Chain of purified human PARP-1 enzyme (P09874 whole entry): as above

Compound | Ki [1] | EC50 [2] | IC50 [3]
O=c1[nH]cc(-c2ccc(CNCC(O)c3ccccc3)o2)c2c1CCCC2 (centres unmarked) [Example 72, 4-{5-[(2-hydroxy-2-phenyl-ethylamino)methyl]furan-2-yl}-5,6,7,8-tetrahydro-2H-isoquinolin-1-one] | 24 nM | 380 nM | 110 nM
CC(=O)c1cccc(Nc2c(C)[nH]c(=O)c3c2CCCC3)c1 [Example 16, 4-(3-acetylphenylamino)-3-methyl-5,6,7,8-tetrahydro-2H-isoquinolin-1-one] | 54 nM | 200 nM | 90 nM
Cc1[nH]c(=O)c2c(c1-c1ccc(CN3CCCC3)o1)CCCC2 [Example 54, 3-methyl-4-(5-pyrrolidin-1-ylmethylfuran-2-yl)-5,6,7,8-tetrahydro-2H-isoquinolin-1-one] | 15 nM | 330 nM | 300 nM
Cc1[nH]c(=O)c2c(c1-c1ccc(CO)o1)CCCC2 [Example 9, 4-(5-Hydroxymethylfuran-2-yl)-3-methyl-5,6,7,8-tetrahydro-2H-isoquinolin-1-one] | 16 nM | 1570 nM | 280 nM
O=C(NCCN1CCCC1)c1cccc(Nc2c[nH]c(=O)c3c2CCCC3)c1 [Example 24, 3-(1-Oxo-1,2,5,6,7,8-hexahydroisoquinolin-4-ylamino)-N-(2-pyrrolidin-1-ylethyl)benzamide] | 31 nM | – | 220 nM
CCCCNCc1ccc(-c2c[nH]c(=O)c3c2CCCC3)o1 [Example 78, 4-(5-butylaminomethylfuran-2-yl)-5,6,7,8-tetrahydro-2H-isoquinolin-1-one] | 40 nM | 520 nM | 250 nM
O=c1[nH]cc(-c2ccc(CN3CCN(c4ncccn4)CC3)o2)c2c1CCCC2 [Example 56, 4-[5-(4-pyrimidin-2-ylpiperazin-1-ylmethyl)furan-2-yl]-5,6,7,8-tetrahydro-2H-isoquinolin-1-one] | – | – | 1450 nM
CN1CCN(CNCc2ccc(-c3c[nH]c(=O)c4c3CCCC4)o2)CC1 [Example 73, 4-(5-{[(4-methylpiperazin-1-ylmethyl)amino]methyl}furan-2-yl)-5,6,7,8-tetrahydro-2H-isoquinolin-1-one] | – | – | 660 nM
Cc1[nH]c(=O)c2c(c1-c1ccc(CNCc3ccccc3)o1)CCCC2 [Example 51, 4-[5-(benzylaminomethyl)furan-2-yl]-3-methyl-5,6,7,8-tetrahydro-2H-isoquinolin-1-one] | – | – | 590 nM
O=c1[nH]cc(-c2ccc(CN3CCCC3)o2)c2c1CCCC2 [Example 61, 4-(5-pyrrolidin-1-ylmethylfuran-2-yl)-5,6,7,8-tetrahydro-2H-isoquinolin-1-one] | – | – | 110 nM
4-[5-({[4-(4-fluorophenyl)-piperazin-1-yl]-5,6,7,8-tetrahydro-2H-isoquinolin-1-one [Example 71] | – | – | 1240 nM
CC(=O)Nc1cccc(Nc2c(C)[nH]c(=O)c3c2CCCC3)c1 [Example 17, N-[3-(3-methyl-1-oxo-1,2,5,6,7,8-hexahydroisoquinolin-4-ylamino)-phenyl]acetamide] | – | – | 140 nM
